Patent US20260022142A1, “MACROCYCLIC IMMUNOMODULATORS” (Bristol-Myers Squibb Company, priority 2022, published 2026)
Numbered stars: 1 amine (or outer) side, 2 acyl side, 3 side chain; on linkers, the order of the positions; unused ones are H or OH. Bridge positions count the residues as written; N and C are the ends. Square brackets hold non-standard residues; d marks the D form. Peptide text beside a SMILES is read from it. * marks the point of attachment. ξ: configuration not given here. Phe(3-CF3) = N[C@@H](Cc1cccc(C(F)(F)F)c1)C(=O)O; Phe(4-COOH) = N[C@@H](Cc1ccc(C(=O)O)cc1)C(=O)O; d(γGlu) = O=C(O)[C@@H](CCC(=O)[*:2])N[*:1]; Bip = N[C@@H](Cc1ccc(-c2ccccc2)cc1)C(=O)O; NH(CH2)14COOH = O=C(O)CCCCCCCCCCCCCCN*; Phe(3-Me) = Cc1cccc(C[C@H](N)C(=O)O)c1; γGlu = O=C(O)[C@H](CCC(=O)[*:2])N[*:1]; NH(CH2)12COOH = O=C(O)CCCCCCCCCCCCN*; Val(3-OH) = CC(C)(O)[C@H](N)C(=O)O; Cha = N[C@@H](CC1CCCCC1)C(=O)O; Thr(3ξ) = CC(O)[C@H](N)C(=O)O; Dap(Me) = CNC[C@H](N)C(=O)O; Carboxymethyl = O=C(O)C*; Orn = NCCC[C@H](N)C(=O)O; Dab = NCC[C@H](N)C(=O)O; AEEA = NCCOCCOCC(=O)O

What follows are compounds tested against T1, PD-1/PD-L1 interaction (PE-labeled human PD-L1-Ig binding to Jurkat cell line over-expressing human PD-1) (Homo sapiens, UniProt Q15116) (assay: Jurkat-PD-1 Cell Binding High-Content Screening Assay (CBA)). Conditions: Jurkat cell line over-expressing human PD-1; PE-labeled PD-L1-Ig 20 nM final; read-out: Jurkat hPD1-PDL1 IC50.
T1 construct: expressed in transfected cells; host or cells: Jurkat
Type: cell-based
In short: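 Read-out is high-content imaging of cell-bound phycoerythrin-tagged PD-L1-Ig on fixed, Hoechst-counterstained Jurkat cells that over-express human PD-1. Compound exposure lasts 2 h at 37° C before the labeled ligand (20 nM final) is added for a further hour.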

T1 sequence (Q15116 25-288): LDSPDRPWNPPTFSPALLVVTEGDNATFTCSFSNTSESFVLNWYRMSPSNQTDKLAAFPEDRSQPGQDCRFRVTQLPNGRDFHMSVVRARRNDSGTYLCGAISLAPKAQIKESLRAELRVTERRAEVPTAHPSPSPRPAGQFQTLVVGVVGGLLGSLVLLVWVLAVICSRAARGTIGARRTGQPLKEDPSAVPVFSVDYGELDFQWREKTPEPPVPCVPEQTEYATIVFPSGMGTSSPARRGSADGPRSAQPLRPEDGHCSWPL

SMILES | IC50 [nM]
CNC[C@@H]1NC(=O)CSC[C@@H](C(=O)N[C@@H](CCN)C(=O)NCCOCCOCC(=O)N[C@@H](CO)C(=O)N[C@@H](CO)C(=O)N[C@@H](CO)C(=O)N[C@@H](CO)C(=O)N[C@@H](CCC(=O)NCCCCCCCCCCCCCCC(=O)O)C(=O)O)NC(=O)[C@H](Cc2cnc[nH]2)NC(=O)[C@H](C(C)(C)O)NC(=O)[C@H](CC2CCCCC2)NC(=O)[C@H](CCN)NC(=O)[C@@H](CC(C)C)NC(=O)[C@H](CCCN)NC(=O)[C@H](Cc2ccc(C(=O)O)cc2)NC(=O)[C@H](Cc2ccc(-c3ccccc3)cc2)NC(=O)[C@H](Cc2ccc(C(=O)O)cc2)NC(=O)[C@H](Cc2cccc(C(F)(F)F)c2)NC(=O)[C@H](CC(=O)O)NC(=O)[C@H](Cc2ccc(OCC(=O)O)cc2)NC1=O [Compound 3901] ({CH2CO}-[Dap(Me)]Y(Carboxymethyl)D[Phe(3-CF3)][Phe(4-COOH)][Bip][Phe(4-COOH)][Orn][dL][Dab][Cha][Val(3-OH)]HC[Dab][AEEA]SSSSE(NH(CH2)14COOH)-OH; thioether N-14) | 173
CC(C)C[C@H]1NC(=O)[C@H](CCCN)NC(=O)[C@H](Cc2ccc(OCC(=O)O)cc2)NC(=O)[C@H](Cc2ccc(-c3ccccc3)cc2)NC(=O)[C@H](Cc2ccc(C(=O)O)cc2)NC(=O)[C@H](Cc2cccc(C(F)(F)F)c2)NC(=O)[C@H](CC(=O)O)NC(=O)[C@H](Cc2ccc(OCC(=O)O)cc2)NC(=O)[C@H](C(C)O)NC(=O)CSC[C@@H](C(=O)N[C@@H](CCN)C(=O)NCCOCCOCC(=O)N[C@@H](CCC(=O)NCCOCCOCC(=O)NCCCCCCCCCCCCC(=O)O)C(=O)O)NC(=O)[C@H](CCC(=O)O)NC(=O)[C@H](C(C)C)NC(=O)[C@H](CC2CCCCC2)NC(=O)[C@H](CCN)NC1=O (stereo partly drawn) [Compound 3902] ({CH2CO}-[Thr(3ξ)]Y(Carboxymethyl)D[Phe(3-CF3)][Phe(4-COOH)][Bip]Y(Carboxymethyl)[Orn][dL][Dab][Cha]VEC[Dab][AEEA][γGlu][AEEA]-{NH(CH2)12COOH}; thioether N-14) | 67.2
CNC[C@@H]1NC(=O)CSC[C@@H](C(=O)N[C@@H](CCN)C(=O)NCCOCCOCC(=O)N[C@@H](CCC(=O)NCCOCCOCC(=O)NCCCCCCCCCCCCC(=O)O)C(=O)O)NC(=O)[C@H](CO)NC(=O)[C@H](C(C)(C)O)NC(=O)[C@H](CC2CCCCC2)NC(=O)[C@H](CCN)NC(=O)[C@@H](CC(C)C)NC(=O)[C@H](CCCN)NC(=O)[C@H](Cc2ccc(C(=O)O)cc2)NC(=O)[C@H](Cc2ccc(-c3ccccc3)cc2)NC(=O)[C@H](Cc2ccc(C(=O)O)cc2)NC(=O)[C@H](Cc2cccc(C(F)(F)F)c2)NC(=O)[C@H](CC(=O)O)NC(=O)[C@H](Cc2ccc(OCC(=O)O)cc2)NC1=O [Compound 3903] ({CH2CO}-[Dap(Me)]Y(Carboxymethyl)D[Phe(3-CF3)][Phe(4-COOH)][Bip][Phe(4-COOH)][Orn][dL][Dab][Cha][Val(3-OH)]SC[Dab][AEEA][γGlu][AEEA]-{NH(CH2)12COOH}; thioether N-14) | 49.7
CC(C)C[C@H]1NC(=O)[C@H](CCCN)NC(=O)[C@H](Cc2ccc(OCC(=O)O)cc2)NC(=O)[C@H](Cc2ccc(-c3ccccc3)cc2)NC(=O)[C@H](Cc2ccc(C(=O)O)cc2)NC(=O)[C@H](Cc2cccc(C(F)(F)F)c2)NC(=O)[C@H](CC(=O)O)NC(=O)[C@H](Cc2ccc(OCC(=O)O)cc2)NC(=O)[C@H](Cc2ccc(OCC(=O)O)cc2)NC(=O)CSC[C@@H](C(=O)N[C@@H](CCN)C(=O)NCCOCCOCC(=O)N[C@H](CCC(=O)NCCOCCOCC(=O)NCCCCCCCCCCCCC(=O)O)C(=O)O)NC(=O)[C@H](CO)NC(=O)[C@H](C(C)(C)O)NC(=O)[C@H](CC2CCCCC2)NC(=O)[C@H](CCN)NC1=O [Compound 3904] ({CH2CO}-Y(Carboxymethyl)Y(Carboxymethyl)D[Phe(3-CF3)][Phe(4-COOH)][Bip]Y(Carboxymethyl)[Orn][dL][Dab][Cha][Val(3-OH)]SC[Dab][AEEA][d(γGlu)][AEEA]-{NH(CH2)12COOH}; thioether N-14) | 38.1
CNC[C@@H]1NC(=O)CSC[C@@H](C(=O)N[C@@H](CCN)C(=O)NCCOCCOCC(=O)N[C@@H](CCC(=O)NCCOCCOCC(=O)NCCCCCCCCCCCCC(=O)O)C(=O)O)NC(=O)[C@H](CO)NC(=O)[C@H](C(C)(C)O)NC(=O)[C@H](CC2CCCCC2)NC(=O)[C@H](CCN)NC(=O)[C@@H](CC(C)C)NC(=O)[C@H](CCCN)NC(=O)[C@H](Cc2ccc(OCC(=O)O)cc2)NC(=O)[C@H](Cc2ccc(-c3ccccc3)cc2)NC(=O)[C@H](Cc2ccc(OCC(=O)O)cc2)NC(=O)[C@H](Cc2cccc(C(F)(F)F)c2)NC(=O)[C@H](CC(=O)O)NC(=O)[C@H](Cc2ccc(OCC(=O)O)cc2)NC1=O [Compound 3905] ({CH2CO}-[Dap(Me)]Y(Carboxymethyl)D[Phe(3-CF3)]Y(Carboxymethyl)[Bip]Y(Carboxymethyl)[Orn][dL][Dab][Cha][Val(3-OH)]SC[Dab][AEEA][γGlu][AEEA]-{NH(CH2)12COOH}; thioether N-14) | 38.4
Cc1cccc(C[C@@H]2NC(=O)[C@H](CC(=O)O)NC(=O)[C@H](Cc3ccc(OCC(=O)O)cc3)NC(=O)[C@H](C(C)O)NC(=O)CSC[C@@H](C(=O)N[C@@H](CCN)C(=O)NCCOCCOCC(=O)N[C@@H](CCC(=O)NCCOCCOCC(=O)NCCCCCCCCCCCCC(=O)O)C(=O)O)NC(=O)[C@H](CO)NC(=O)[C@H](C(C)(C)O)NC(=O)[C@H](CC3CCCCC3)NC(=O)[C@H](CCN)NC(=O)[C@@H](CC(C)C)NC(=O)[C@H](CCCN)NC(=O)[C@H](Cc3ccc(OCC(=O)O)cc3)NC(=O)[C@H](Cc3ccc(-c4ccccc4)cc3)NC(=O)[C@H](Cc3ccc(OCC(=O)O)cc3)NC2=O)c1 (stereo partly drawn) [Compound 3906] ({CH2CO}-[Thr(3ξ)]Y(Carboxymethyl)D[Phe(3-Me)]Y(Carboxymethyl)[Bip]Y(Carboxymethyl)[Orn][dL][Dab][Cha][Val(3-OH)]SC[Dab][AEEA][γGlu][AEEA]-{NH(CH2)12COOH}; thioether N-14) | 17.7
Cc1cccc(C[C@@H]2NC(=O)[C@H](CC(=O)O)NC(=O)[C@H](Cc3ccc(OCC(=O)O)cc3)NC(=O)[C@H](C(C)O)NC(=O)CSC[C@@H](C(=O)N[C@@H](CCN)C(=O)NCCOCCOCC(=O)N[C@@H](CCC(=O)NCCOCCOCC(=O)NCCCCCCCCCCCCC(=O)O)C(=O)O)NC(=O)[C@H](CO)NC(=O)[C@H](C(C)(C)O)NC(=O)[C@H](CC3CCCCC3)NC(=O)[C@H](CCN)NC(=O)[C@@H](CC(C)C)NC(=O)[C@H](CCCN)NC(=O)[C@H](Cc3ccc(C(=O)O)cc3)NC(=O)[C@H](Cc3ccc(-c4ccccc4)cc3)NC(=O)[C@H](Cc3ccc(C(=O)O)cc3)NC2=O)c1 (stereo partly drawn) [Compound 3907] ({CH2CO}-[Thr(3ξ)]Y(Carboxymethyl)D[Phe(3-Me)][Phe(4-COOH)][Bip][Phe(4-COOH)][Orn][dL][Dab][Cha][Val(3-OH)]SC[Dab][AEEA][γGlu][AEEA]-{NH(CH2)12COOH}; thioether N-14) | 16.6
